pIC50: −log10 of the molar value.
Tests used:
[1] = Solubility observed during preparation; format: physicochemical; settings: for solubility in solvents in general: most or all solvents (ambient temperature, including CH2Cl2 and THF; including DMSO)
A2780 CisR cells = assay: MTT cell viability assay, cisplatin resistance model; format: cell-based; settings: for pIC50: A2780 CisR cells, 72 h incubation, MTT; for resistance factor: ratio of IC50 in A2780 CisR cells to IC50 in parental A2780 cells
Method: (§1) The rate of cell-survival under the action of test compounds was evaluated by an improved MTT assay as previously described for 3-(4,5-dimethylthiazol-2-yl)-2,5-diphenyltetrazolium bromide (MTT, Applichem, Germany) (Mueller, H., Kassack, M. U., Wiese, M. J. Biomol. Screen. 2004, 9, 506-515).
(§2) The assay is based on the ability of viable cells to metabolize yellow MTT to violet formazane crystals that can be detected spectrophotometrically. In brief, A2780 (ECACC, Salisbury, UK) and A2780 CisR cells (established by exposure of A2780 cells to weekly cycles of 2 µmol/L cisplatin over a period of 24 weeks) were seeded at a density of 8,000 cells/well in 96well plates (Corning, Germany) in 90 µL drug-free complete medium. After an incubation period of 24 h at 37 °C under humidified air supplemented with 5% CO2, cells were exposed to dilutions of the test compounds in 100 µL/well. Stock solutions were prepared in a concentration of 10^-2 M in water, and serial dilutions were prepared by using sodium chloride 0.9%. Incubation was ended after 72 h and cell survival was determined by addition of 25 µL/well MTT solution (5 mg/mL in phosphate buffered saline). After an incubation period of 10 min at 37 °C, the medium was carefully removed. The intracellular formazan product was solubilized by adding 75 µl DMSO/well. Absorbance was measured at 544 nm and 690 nm with a FLUOstar microplate-reader (BMG LabTech, Offenburg, Germany). The absorbance of untreated control cells was taken as 100% viability. All tests were performed in triplicate.
(§3) Indicated are mean values ± standard error of the mean. Concentration/inhibition curves were fitted to the data by nonlinear regression analysis using the four parameter logistic equation (GraphPad Prism).
Values are means ± SEM derived from a representative experiment performed in triplicate. The resistance factor was calculated as the ratio of the IC50 value of the A2780 CisR cells and the IC50 value of the corresponding sensitive parental A2780 cell line.

A2780 = assay: MTT cell viability assay; format: cell-based; settings: A2780 cells, 72 h incubation
Method: as §1, §2, §3

SMILES	solubility in solvents in general [1]	pIC50 (A2780 CisR cells)	resistance factor (A2780 CisR cells)	pIC50 (A2780)	solubility in DMF [1]	solubility in DMSO [1]	solubility in water [1]
[Cl][Pt]1([Cl])[N]2CC3C[N]1CC(C2)C31OCCO1 [compound 4, (Spiro[bispidin-9,2'-[1,3]dioxolane])platinum(II)dichloride]	insoluble in all solvents, including DMSO	–	–	–	–	–	–
O=C1[O][Pt]2([NH][C@@H]3CCCC[C@H]3[NH]2)[O]C1=O (relative stereo) [oxaliplatin, trans-(R,R)-1,2-diamino-cyclohexane platinum(II)oxalate, reference compound]	–	6.02	4.52	6.68	–	–	–
O=C([O-])C1(C(=O)[O-])CCC1.OC1(O)C2CNCC1CNC2.[Pt+2] [compound 6, (Bispidin-9,9-diol)platinum(II)(1,1-cyclobutanedicarboxylate)]	–	–	–	–	dissolves well	dissolves well	dissolves well
C1NCC2CNCC1C2.O=C1[O][Pt][O]C1=O [compound 3, (C7H14N2)Pt(C2O4)]	–	4.45	4.88	5.14	–	–	–
C1NCC2CNCC1C2.CN(C)C=O.[Cl][Pt][Cl] [1b, (C7H14N2)PtCl2·DMF]	insoluble in most solvents	–	–	–	dissolve increasingly well	dissolve increasingly well	dissolve increasingly well
N.N.O=C([O-])C1(C(=O)[O-])CCC1.[Pt+2] [carboplatin, reference compound]	–	4.40	9.50	5.37	–	–	–
N.N.[Cl][Pt][Cl] [cisplatin, cis-(NH3)2PtCl2, reference compound]	–	–	–	5.86	–	–	–
C1NCC2CNCC1C2.O=C1[O][Pt][O]C(=O)C12CCC2 [2a, (C7H14N2)Pt{(O2C)2C4H6}]	–	4.24	6.46	5.05	poor	–	more soluble in water than the dichloride 1
C1NCC2CNCC1C2.[Cl][Pt][Cl] [1a, (C7H14N2)PtCl2]	insoluble in most solvents	4.97	2.52	5.38	dissolve increasingly well	dissolve increasingly well	dissolve increasingly well
